{"source": "the supplement of paper PMC11208160"}
{"assay": "recombinant barcode read abundance after kanamycin selection (control-corrected) (log10(CPM+1)); higher = more efficient recombination; sequences stand for … in AGTGCAGAGAAAATCGGCCAGTTTTCTCTGCCTGCAGTCCGCATGCCGT…AGATTTATGCAGCGGACTGCCTTTCTCCCAAAGTGATAAACCGGACAGTATCATGGACCGGTTTTCCCGGTAATCCGTATTTGCAAGGTTGGTTTCACT; site = the 11-nt target", "in_short": "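For this pooled screen, each oligo contained a promoter, a target, a barcode and the J23119-driven first 104 bases of the bridge RNA. Gibson cloning placed it into a vector supplying the remaining 73 bp and a T7-inducible recombinase, and the pool was co-electroporated into E. coli with a donor plasmid. Recombination efficiency is derived from barcode counts per million at recombinant junctions after averaging and control correction, and is expressed on a log scale as log10(CPM+1), with selection on chloramphenicol/ampicillin/kanamycin plus 0.1 mM IPTG against a chloramphenicol/ampicillin LB agar control.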"}
{"sequence": "CTGCGGTCTTGGGTTCTAACCTGTTGCAT (site CTGCGGTCTAT)", "recombinant barcode read abundance (log10)": 1.7}
{"sequence": "AGCCAGGCTTGGGTTCTAACCTGTTGCGG (site TCGTTTCCTAT)", "recombinant barcode read abundance (log10)": 0.0575}
{"sequence": "GATTCTCCTTGGGTTCTAACCTGTTGCAT (site GATTCTCCTAT)", "recombinant barcode read abundance (log10)": 0.197}
{"sequence": "AAGAACTCTTGGGTTCTAACCTGTTGCCG (site GTTTCAACTAC)", "recombinant barcode read abundance (log10)": 0.0172}
{"sequence": "GCCGATACTTGGGTTCTAACCTGTTGCCT (site GCCGACACTAG)", "recombinant barcode read abundance (log10)": 0.171}
{"sequence": "ACAGAGACTTGGGTTCTAACCTGTTGCGC (site ACAAAGACTGC)", "recombinant barcode read abundance (log10)": 0.372}
{"sequence": "GGGGCTTCTTGGGTTCTAACCTGTTGCAT (site GGGGCTTCTAT)", "recombinant barcode read abundance (log10)": 2.07}
{"sequence": "GTTACGGCTTGGGTTCTAACCTGTTGCCT (site GTTTCGGCTAG)", "recombinant barcode read abundance (log10)": 0}
{"sequence": "AGTAGTGCTTGGGTTCTAACCTGTTGCCT (site AATAGTGCTAG)", "recombinant barcode read abundance (log10)": 0.186}
{"sequence": "TAATGTACTTGGGTTCTAACCTGTTGCTT (site TAACGTACTAA)", "recombinant barcode read abundance (log10)": 0.0626}
{"sequence": "TTACGTACTTGGGTTCTAACCTGTTGCCT (site ATACGTACTAG)", "recombinant barcode read abundance (log10)": 0.131}
{"sequence": "ATCTGGGCTTGGGTTCTAACCTGTTGCCT (site ATCTGGGCTAG)", "recombinant barcode read abundance (log10)": 0.0992}
{"sequence": "GTATGTGCTTGGGTTCTAACCTGTTGCGG (site GTATGAGCTCC)", "recombinant barcode read abundance (log10)": 0.689}
{"sequence": "GAGCGCTCTTGGGTTCTAACCTGTTGCCT (site GAGTGCTCTAC)", "recombinant barcode read abundance (log10)": 0.0357}
{"sequence": "ACTAGAGCTTGGGTTCTAACCTGTTGCCT (site ACCAGAGCTAG)", "recombinant barcode read abundance (log10)": 0.268}
{"sequence": "GTCGCGACTTGGGTTCTAACCTGTTGCCT (site GTCGCGACTAG)", "recombinant barcode read abundance (log10)": 0.0792}
{"sequence": "GAGGACTCTTGGGTTCTAACCTGTTGCCC (site GAGGACTCTCG)", "recombinant barcode read abundance (log10)": 0.136}
{"sequence": "GCCCTATCTTGGGTTCTAACCTGTTGCCT (site GCCCAATCTAG)", "recombinant barcode read abundance (log10)": 0.0981}
{"sequence": "TTCGGAGCTTGGGTTCTAACCTGTTGCTG (site TTGGGAGCTCA)", "recombinant barcode read abundance (log10)": 0.0871}
{"sequence": "ACAAGACCTTGGGTTCTAACCTGTTGCAT (site ACAAGACCTAT)", "recombinant barcode read abundance (log10)": 1.47}
{"sequence": "CTCTATTCTTGGGTTCTAACCTGTTGCAT (site CTCAATTCTAT)", "recombinant barcode read abundance (log10)": 0.262}
{"sequence": "ACATGCACTTGGGTTCTAACCTGTTGCAT (site ACATGCACTAT)", "recombinant barcode read abundance (log10)": 1.05}
{"sequence": "CAGCCCTCTTGGGTTCTAACCTGTTGCTA (site CAGCCCTCTTA)", "recombinant barcode read abundance (log10)": 2.75}
{"sequence": "TCGAACTCTTGGGTTCTAACCTGTTGCTT (site TCGCGCTCTAA)", "recombinant barcode read abundance (log10)": 0.0841}
{"sequence": "GATTCTTCTTGGGTTCTAACCTGTTGCCT (site GTTTCTTCTAG)", "recombinant barcode read abundance (log10)": 0}
{"sequence": "TCAGGATCTTGGGTTCTAACCTGTTGCCT (site TCAGAATCTAG)", "recombinant barcode read abundance (log10)": 0.201}
{"sequence": "GCGGGTCCTTGGGTTCTAACCTGTTGCCT (site GCAGGTCCTAG)", "recombinant barcode read abundance (log10)": 2.24}
{"sequence": "GGAAAGACTTGGGTTCTAACCTGTTGCAC (site GGAAAGACTGT)", "recombinant barcode read abundance (log10)": 2.02}
{"sequence": "AGATTTCCTTGGGTTCTAACCTGTTGCCT (site ATATTTCCTAG)", "recombinant barcode read abundance (log10)": 0.234}
{"sequence": "TAGCGGACTTGGGTTCTAACCTGTTGCCT (site TAGCCGACTAG)", "recombinant barcode read abundance (log10)": 0}
{"sequence": "GGGCACTCTTGGGTTCTAACCTGTTGCCT (site GGGCACTCTAT)", "recombinant barcode read abundance (log10)": 0.585}
{"sequence": "GACTAAGCTTGGGTTCTAACCTGTTGCGG (site CTGGGGTCTAA)", "recombinant barcode read abundance (log10)": 0.0398}
{"sequence": "CACCGAGCTTGGGTTCTAACCTGTTGCTA (site TTGACGACTCG)", "recombinant barcode read abundance (log10)": 0.177}
{"sequence": "AATGCTTCTTGGGTTCTAACCTGTTGCCT (site AATGCTTCTAG)", "recombinant barcode read abundance (log10)": 1.05}
{"sequence": "TTGTGTTCTTGGGTTCTAACCTGTTGCTA (site GTGTGTTCTTG)", "recombinant barcode read abundance (log10)": 0.0284}
{"sequence": "ACACGTGCTTGGGTTCTAACCTGTTGCGA (site ACACGTGCTTC)", "recombinant barcode read abundance (log10)": 1.46}
{"sequence": "AACTGTCCTTGGGTTCTAACCTGTTGCAT (site AACTTTCCTAT)", "recombinant barcode read abundance (log10)": 0.106}
{"sequence": "GCTTCACCTTGGGTTCTAACCTGTTGCCT (site GCTTTACCTAA)", "recombinant barcode read abundance (log10)": 0.103}
{"sequence": "TCGCACACTTGGGTTCTAACCTGTTGCCT (site GCGCACACTAG)", "recombinant barcode read abundance (log10)": 0.814}
{"sequence": "GTGTGGCCTTGGGTTCTAACCTGTTGCCA (site GTGTGGCCTTG)", "recombinant barcode read abundance (log10)": 0.574}
{"sequence": "TTAGAGCCTTGGGTTCTAACCTGTTGCCT (site TTAGAGGCTAG)", "recombinant barcode read abundance (log10)": 0.173}
{"sequence": "GAAGGCGCTTGGGTTCTAACCTGTTGCCT (site GAAGTCGCTAG)", "recombinant barcode read abundance (log10)": 0.0553}
{"sequence": "GTCTGTTCTTGGGTTCTAACCTGTTGCCT (site GGCTGTTCTAG)", "recombinant barcode read abundance (log10)": 0.16}
{"sequence": "GCCGAGGCTTGGGTTCTAACCTGTTGCTG (site GTCTAGGCTCA)", "recombinant barcode read abundance (log10)": 0.326}
{"sequence": "ACAATAGCTTGGGTTCTAACCTGTTGCTG (site ACACTAGCTCA)", "recombinant barcode read abundance (log10)": 0.0138}
{"sequence": "ACTGAGTCTTGGGTTCTAACCTGTTGCAT (site ACTGAGTCTTT)", "recombinant barcode read abundance (log10)": 0.109}
{"sequence": "CCAGTTACTTGGGTTCTAACCTGTTGCCT (site CCAGTGACTAG)", "recombinant barcode read abundance (log10)": 0.195}
{"sequence": "TACGCTCCTTGGGTTCTAACCTGTTGCCT (site TACGCTCCTAC)", "recombinant barcode read abundance (log10)": 0}
{"sequence": "TAGACGACTTGGGTTCTAACCTGTTGCTT (site TAGGCGACTAA)", "recombinant barcode read abundance (log10)": 0.0736}
{"sequence": "TGAAAGTCTTGGGTTCTAACCTGTTGCCT (site TGAAAGTCTAG)", "recombinant barcode read abundance (log10)": 0.727}
{"sequence": "GAAACTGCTTGGGTTCTAACCTGTTGCCT (site GAGACTGCTAG)", "recombinant barcode read abundance (log10)": 0.158}
{"sequence": "CGACACTCTTGGGTTCTAACCTGTTGCCT (site CGACACTCTAG)", "recombinant barcode read abundance (log10)": 0.251}
{"sequence": "TTCGGCTCTTGGGTTCTAACCTGTTGCTA (site CGATCACCTAG)", "recombinant barcode read abundance (log10)": 0.0491}
{"sequence": "ATGAGAACTTGGGTTCTAACCTGTTGCCT (site ATGAGAACTAG)", "recombinant barcode read abundance (log10)": 1.5}
{"sequence": "TAGTCATCTTGGGTTCTAACCTGTTGCTC (site TAGCCATCTGA)", "recombinant barcode read abundance (log10)": 0.252}
{"sequence": "TCACACTCTTGGGTTCTAACCTGTTGCCT (site TCCCACTCTAG)", "recombinant barcode read abundance (log10)": 0.111}
{"sequence": "ATGATTGCTTGGGTTCTAACCTGTTGCCT (site ATGATTGCTAG)", "recombinant barcode read abundance (log10)": 1.18}
{"sequence": "CTTCGAGCTTGGGTTCTAACCTGTTGCTG (site CTTCGAGCTCG)", "recombinant barcode read abundance (log10)": 0.184}
{"sequence": "TAGACAGCTTGGGTTCTAACCTGTTGCCT (site TAGACAGCTAG)", "recombinant barcode read abundance (log10)": 0.416}
{"sequence": "AGCGAGTCTTGGGTTCTAACCTGTTGCCT (site AACGAGTCTAG)", "recombinant barcode read abundance (log10)": 0.951}
{"sequence": "AGGATAGCTTGGGTTCTAACCTGTTGCGG (site AGGATAGCTCC)", "recombinant barcode read abundance (log10)": 2.18}
{"sequence": "ATATGTACTTGGGTTCTAACCTGTTGCCG (site ATATGTACTCG)", "recombinant barcode read abundance (log10)": 1.07}
{"sequence": "GAGACTCCTTGGGTTCTAACCTGTTGCAC (site GAGACTCCTGT)", "recombinant barcode read abundance (log10)": 1.17}
{"sequence": "CTCTATTCTTGGGTTCTAACCTGTTGCAT (site CTCCATTCTAT)", "recombinant barcode read abundance (log10)": 0.16}
{"sequence": "TAGAACACTTGGGTTCTAACCTGTTGCTA (site TAGAACACTCA)", "recombinant barcode read abundance (log10)": 0.109}
{"sequence": "AACGCTTCTTGGGTTCTAACCTGTTGCCT (site AACGCTTCTAG)", "recombinant barcode read abundance (log10)": 0.3}
